What was measured:
Type in all cases: cell-based
SW-620 = experiment: NCI in vitro DTP human cell line screen, SW-620; conditions: Colon Cancer, 1.00E−5 Molar
Protocol: (§1) Then, a cell toxicity assay of the cancer lines made by National Cancer Institute will be discussed as follows. The cell toxicity assay is performed by choosing ten compounds (existing certification numbers) from the 59 compounds disclosed in the present invention first.

OVCAR-4 = experiment: NCI in vitro DTP human cell line screen, OVCAR-4; conditions: Ovarian Cancer, 1.00E−5 Molar
Protocol: as §1

MOLT-4 = experiment: NCI in vitro DTP human cell line screen, MOLT-4; conditions: Leukemia, 1.00E−5 Molar
Protocol: as §1

UACC-257 = experiment: NCI in vitro DTP human cell line screen, UACC-257; conditions: Melanoma, 1.00E−5 Molar
Protocol: as §1

SK-MEL-2 = experiment: NCI in vitro DTP human cell line screen, SK-MEL-2; conditions: Melanoma, 1.00E−5 Molar
Protocol: as §1

HS 578-T = experiment: NCI in vitro DTP human cell line screen, HS 578-T; conditions: Breast Cancer, 1.00E−5 Molar
Protocol: as §1

M14 = experiment: NCI in vitro DTP human cell line screen, M14; conditions: Melanoma, 1.00E−5 Molar
Protocol: as §1

OVCAR-8 = experiment: NCI in vitro DTP human cell line screen, OVCAR-8; conditions: Ovarian Cancer, 1.00E−5 Molar
Protocol: as §1

NCI-H522 = experiment: NCI in vitro DTP human cell line screen, NCI-H522; conditions: Non-Small Cell Lung Cancer, 1.00E−5 Molar
Protocol: as §1

RPMI-8226 = experiment: NCI in vitro DTP human cell line screen, RPMI-8226; conditions: Leukemia, 1.00E−5 Molar
Protocol: as §1

MALME-3M = experiment: NCI in vitro DTP human cell line screen, MALME-3M; conditions: Melanoma, 1.00E−5 Molar
Protocol: as §1

UO-31 = experiment: NCI in vitro DTP human cell line screen, UO-31; conditions: Renal Cancer, 1.00E−5 Molar
Protocol: as §1

HT29 = experiment: NCI in vitro DTP human cell line screen, HT29; conditions: Colon Cancer, 1.00E−5 Molar
Protocol: as §1

SR = experiment: NCI in vitro DTP human cell line screen, SR; conditions: Leukemia, 1.00E−5 Molar
Protocol: as §1

786-0 = experiment: NCI in vitro DTP human cell line screen, 786-0; conditions: Renal Cancer, 1.00E−5 Molar
Protocol: as §1

TK-10 = experiment: NCI in vitro DTP human cell line screen, TK-10; conditions: Renal Cancer, 1.00E−5 Molar
Protocol: as §1

SK-OV-3 = experiment: NCI in vitro DTP human cell line screen, SK-OV-3; conditions: Ovarian Cancer, 1.00E−5 Molar
Protocol: as §1

NCI-H322M = experiment: NCI in vitro DTP human cell line screen, NCI-H322M; conditions: Non-Small Cell Lung Cancer, 1.00E−5 Molar
Protocol: as §1

HCT-15 = experiment: NCI in vitro DTP human cell line screen, HCT-15; conditions: Colon Cancer, 1.00E−5 Molar
Protocol: as §1

SF-295 = experiment: NCI in vitro DTP human cell line screen, SF-295; conditions: CNS Cancer, 1.00E−5 Molar
Protocol: as §1

SF-539 = experiment: NCI in vitro DTP human cell line screen, SF-539; conditions: CNS Cancer, 1.00E−5 Molar
Protocol: as §1

KM12 = experiment: NCI in vitro DTP human cell line screen, KM12; conditions: Colon Cancer, 1.00E−5 Molar
Protocol: as §1

T-47D = experiment: NCI in vitro DTP human cell line screen, T-47D; conditions: Breast Cancer, 1.00E−5 Molar
Protocol: as §1

BT-549 = experiment: NCI in vitro DTP human cell line screen, BT-549; conditions: Breast Cancer, 1.00E−5 Molar
Protocol: as §1

OVCAR-3 = experiment: NCI in vitro DTP human cell line screen, OVCAR-3; conditions: Ovarian Cancer, 1.00E−5 Molar
Protocol: as §1

A3 cell lines = experiment: MTT assay, A3 cell lines (lung cancer stem cell)
Description: Please to FIG. 4B, various cell viabilities of the A3 cell lines can be obtained through the MTT assay and illustrated in FIG. 4B while the compounds No. 1˜30 are used to treat A3 cell lines, wherein A3 cell lines are lung cancer stem cell.

SK-MEL-5 = experiment: NCI in vitro DTP human cell line screen, SK-MEL-5; conditions: Melanoma, 1.00E−5 Molar
Protocol: as §1

SNB-19 = experiment: NCI in vitro DTP human cell line screen, SNB-19; conditions: CNS Cancer, 1.00E−5 Molar
Protocol: as §1

SF-268 = experiment: NCI in vitro DTP human cell line screen, SF-268; conditions: CNS Cancer, 1.00E−5 Molar
Protocol: as §1

[1] = MTT assay, HEL299 fibroblast; conditions: human
Description: Please refer to FIG. 4C, various cell viabilities of the HEL299 cell lines can be obtained through the MTT assay while the compounds No. 1˜30 are used to treat HEL299 cell lines, wherein HEL299 cell lines are fibroblast.

RXF 393 = experiment: NCI in vitro DTP human cell line screen, RXF 393; conditions: Renal Cancer, 1.00E−5 Molar
Protocol: as §1

For O=c1c2ccccc2sc2c(Cl)c(Sc3ccc(Cl)cc3)ccc12 [No. 29, 4-Chloro-3-(4-chlorophenylthio)-9H-thioxanthen-9-one], the “Growth Percent” value (SW-620) was 75.00%, the “Growth Percent” value (OVCAR-4) was 31.58% and the “Growth Percent” value (MOLT-4) was 94.77%. For the same molecule, the “Growth Percent” value (UACC-257) was 99.23%, the “Growth Percent” value (SK-MEL-2) was 105.36% and the “Growth Percent” value (HS 578-T) was 102.79%. For the same molecule, the “Growth Percent” value (M14) was 89.62%, the “Growth Percent” value (OVCAR-8) was 64.49% and the “Growth Percent” value (NCI-H522) was 80.48%. The “Growth Percent” value (RPMI-8226) was 88.56%, the “Growth Percent” value (MALME-3M) was 76.90% and the “Growth Percent” value (UO-31) was 69.61%. For the same molecule, the “Growth Percent” value (HT29) was 86.36%, the “Growth Percent” value (SR) was 51.19% and the “Growth Percent” value (786-0) was 84.66%. The “Growth Percent” value (TK-10) was 88.86%, the “Growth Percent” value (SK-OV-3) was 73.85% and the “Growth Percent” value (NCI-H322M) was 56.53%. For the same molecule, the “Growth Percent” value (HCT-15) was 85.15%, the “Growth Percent” value (SF-295) was 57.86% and the “Growth Percent” value (SF-539) was 86.15%. The “Growth Percent” value (KM12) was 73.79%, the “Growth Percent” value (T-47D) was 85.63% and the “Growth Percent” value (BT-549) was 87.92%. The “Growth Percent” value (OVCAR-3) was 90.37%, the “cell viabilities of A3 cell lines (MTT assay)” value (A3 cell lines) was 70.3 ± 5.31% and the “Growth Percent” value (SK-MEL-5) was 88.35%. For the same molecule, the “Growth Percent” value (SNB-19) was 74.97%, the “Growth Percent” value (SF-268) was 81.14% and the viability [1] was 74.5 ± 9.39%. For the same molecule, the “Growth Percent” value (RXF 393) was 97.81%.
